Experimental data: the NIST ThermoML archive (doi:10.1016/j.tca.2015.03.027)
± gives the expanded uncertainty stated by the source.

Columns and labels:
[1] = Molar enthalpy of transition or fusion; conditions: Crystal; DSC
[2] = molar heat capacity at constant pressure; conditions: 290 K; 101.33 kPa; Crystal; Small sample (50 mg) DSC
[3] = Crystal; DTA
[4] = molar heat capacity at constant pressure; wn = mass fraction of the nth substance listed; conditions: 320 K; 96 kPa; Liquid; Small sample (50 mg) DSC; w1 = 0.649

SMILES	Molar enthalpy of transition or fusion [1] [kcal/mol]	molar heat capacity at constant pressure [2] [J/K/mol]	Normal melting temperature [3] [°C]	molar heat capacity at constant pressure [4] [J/K/mol]
O.O.O.O.O.O.[Br-].[Br-].[Ca+2] [calcium bromide hexahydrate]	10.5 ± 0.335	363.41 ± 37	34.00 ± 2	
[Br-].[Br-].[Ca+2] [calcium bromide] + O				75.67 ± 7.5
